This assay concerns the target T1, HEK cells stably transfected with tetracycline inducible hNR1 and hNR2A (Homo sapiens, UniProt Q05586+Q12879).
T1 construct: expressed in transfected cells; host or cells: HEK cells, stably transfected, tetracycline/doxycycline inducible
In words: Assay 1: Cell-Based Assay, cytosolic calcium response to positive allosteric modulators (with 30 μM glycine and 300 nM L-glutamate, EC30). The conditions noted are these: for pEC50: cytosolic calcium response, with 30 μM glycine and 300 nM L-glutamate (EC30), — = no plateau was reached; for Max %: responses scaled relative to 100 μM L-glutamate maximal response (100%) and 0 μM L-glutamate (0%). In a few lines:
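Cells induced 24 h with 7.5 μg mL^−1 doxycycline plus 500 μM (+)-ketamine, loaded 60 min at 37 °C with calcium dye in Mg-free HBSS (1.8 mM Ca, probenecid, 10 μM (+)-ketamine, pH 7.15). Peak RFU over 5 min after compound addition, scaled to 100 μM L-glutamate (100%) and 0 μM (0%); four-parameter Hill fit for EC50, max % if no plateau.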

Each structure is given as a SMILES string. pEC50: −log10 of the molar value.

T1 sequence (Q12879 23-1464, other chains not shown): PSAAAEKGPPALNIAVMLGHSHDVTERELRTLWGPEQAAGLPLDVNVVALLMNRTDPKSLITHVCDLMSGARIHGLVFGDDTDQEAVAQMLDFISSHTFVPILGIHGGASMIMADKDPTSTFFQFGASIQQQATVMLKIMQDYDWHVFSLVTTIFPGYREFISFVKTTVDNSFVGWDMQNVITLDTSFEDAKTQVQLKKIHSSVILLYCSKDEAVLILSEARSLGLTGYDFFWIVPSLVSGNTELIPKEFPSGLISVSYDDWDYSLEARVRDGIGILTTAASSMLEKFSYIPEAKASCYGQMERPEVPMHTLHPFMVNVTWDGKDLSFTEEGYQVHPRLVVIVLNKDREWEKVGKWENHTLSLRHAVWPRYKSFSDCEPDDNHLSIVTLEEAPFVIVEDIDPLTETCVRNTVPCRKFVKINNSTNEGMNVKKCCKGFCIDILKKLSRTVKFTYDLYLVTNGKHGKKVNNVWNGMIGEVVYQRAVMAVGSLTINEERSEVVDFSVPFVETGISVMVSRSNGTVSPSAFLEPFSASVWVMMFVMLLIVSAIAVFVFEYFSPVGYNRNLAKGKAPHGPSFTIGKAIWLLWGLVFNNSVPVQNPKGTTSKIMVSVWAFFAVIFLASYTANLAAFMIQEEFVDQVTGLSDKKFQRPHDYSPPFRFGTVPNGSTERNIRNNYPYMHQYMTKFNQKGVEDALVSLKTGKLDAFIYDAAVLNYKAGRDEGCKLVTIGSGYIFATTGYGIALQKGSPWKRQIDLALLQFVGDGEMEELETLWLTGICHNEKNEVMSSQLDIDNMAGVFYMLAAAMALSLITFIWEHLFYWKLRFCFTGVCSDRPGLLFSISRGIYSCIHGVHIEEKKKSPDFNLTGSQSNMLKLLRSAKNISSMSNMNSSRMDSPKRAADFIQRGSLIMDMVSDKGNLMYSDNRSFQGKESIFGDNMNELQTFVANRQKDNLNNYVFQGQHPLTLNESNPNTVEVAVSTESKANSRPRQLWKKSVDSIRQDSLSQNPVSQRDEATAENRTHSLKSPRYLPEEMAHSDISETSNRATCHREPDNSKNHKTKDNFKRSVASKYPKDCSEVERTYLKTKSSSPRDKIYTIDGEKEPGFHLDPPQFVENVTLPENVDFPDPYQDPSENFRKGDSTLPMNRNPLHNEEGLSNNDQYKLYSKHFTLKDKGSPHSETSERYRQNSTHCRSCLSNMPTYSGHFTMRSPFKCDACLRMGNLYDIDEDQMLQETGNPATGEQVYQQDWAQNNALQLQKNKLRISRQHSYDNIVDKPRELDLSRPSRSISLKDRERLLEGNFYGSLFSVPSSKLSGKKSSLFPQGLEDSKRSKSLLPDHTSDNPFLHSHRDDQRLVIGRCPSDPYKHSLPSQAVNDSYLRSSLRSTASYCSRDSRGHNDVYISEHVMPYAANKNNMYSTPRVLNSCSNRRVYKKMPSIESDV

As for `CNC(=O)Cc1c(C)sc2nc(Cn3nc(Cl)cc3C(F)(F)F)cc(=O)n12` [compound 99, 2-[7-[[3-chloro-5-(trifluoromethyl)pyrazol-1-yl]methyl]-2-methyl-5-oxo-thiazolo[3,2-a]pyrimidin-3-yl]-N-methyl-acetamide], the pEC50 (Table 3) was 5.43.

Regarding `CCNC(=O)c1c(C2CC2)sc2nc(Cn3nc(C4CC4)cc3C(F)(F)F)cc(=O)n12` [Example 16.7, 2-cyclopropyl-7-((3-cyclopropyl-5-(trifluoromethyl)-1H-pyrazol-1-yl)methyl)-N-ethyl-5-oxo-5H-thiazolo[3,2-a]pyrimidine-3-carboxamide], where the note is “Table 2”, the pEC50 is 4.44 and the Max % is reported as 67.5%.

On to `CCCc1c(C)sc2nc(CN(CC)c3ccc(F)cc3)cc(=O)n12` [Example 5.41, 7-((ethyl(4-fluorophenyl)amino)methyl)-2-methyl-3-propyl-5H-thiazolo[3,2-a]pyrimidin-5-one], for which, where the note is “Table 2”, the negative logarithm of the EC50 (pEC50) is 5.70 and the Max % came out at 125%.

With `CCN(Cc1cc(=O)n2c3c(sc2n1)CCOC3)c1ccc(F)cc1` [Example 8.9, 2-[(N-ethyl-4-fluoro-anilino)methyl]-8,9-dihydro-6H-pyrano[3,4]thiazolo[1,4-a]pyrimidin-4-one], under “Table 2”, the pEC50 was 4.95 and the Max % amounted to 124%.

For the compound `Cc1sc2nc(Cn3nc(C(F)F)cc3C)cc(=O)n2c1[C@@H]1C[C@H]1CO` (relative stereo) [Example 15.22, 7[[3-(difluoromethyl)-5-methyl-pyrazol-1-yl]methyl]-3-[trans-2-(hydroxymethyl)cyclopropyl]-2-methyl-thiazolo[3,2-a]pyrimidin-5-one], for the setting “Table 2”, the pEC50 is 6.15 and the Max % came out at 149%.

In the case of `Cc1sc2nc(CN3c4ccccc4CC3C)cc(=O)n2c1C#N` (centres unmarked) [Example 7.8, 2-methyl-7-((2-methylindolin-1-yl)methyl)-5-oxo-5H-thiazolo[3,2-a]pyrimidine-3-carbonitrile], under “Table 2”, the pEC50 was 5.60 and the Max % worked out at 126%.

Take `CCNC(=O)c1c(C)sc2nc(Cc3cccc(C(F)(F)F)c3F)cc(=O)n12` [Example 21.12, N-ethyl-7-(2-fluoro-3-(trifluoromethyl)benzyl)-2-methyl-5-oxo-5H-thiazolo[3,2-a]pyrimidine-3-carboxamide]: the pEC50 (Table 2) is 5.17.

For `CCC(=O)c1c(C)sc2nc(Cn3nc(Cl)cc3C(F)(F)F)cc(=O)n12` [compound 141, 7-[[3-chloro-5-(trifluoromethyl)pyrazol-1-yl]methyl]-2-methyl-3-propanoyl-thiazolo[3,2-a]pyrimidin-5-one], for the setting “Table 3”, the pEC50 is 6.48.

Turning to `CCN(Cc1cc(=O)n2c(-c3nccs3)c(C)sc2n1)c1ccc(F)cc1` [Example 5.8, 7-((ethyl(4-fluorophenyl)amino)methyl)-2-methyl-3-(thiazol-2-yl)-5H-thiazolo[3,2-a]pyrimidin-5-one], where the note is “Table 2”, the negative-log EC50 (pEC50) is 6.17 and the Max % is listed as 156%.

Regarding `Cc1sc2nc(Cc3nc(C(F)(F)F)cn3C)cc(=O)n2c1C1CC1C#N` (centres unmarked) [compound 278, 2-[2-methyl-7-[[1-methyl-4-(trifluoromethyl)imidazol-2-yl]methyl]-5-oxo-thiazolo[3,2-a]pyrimidin-3-yl]cyclopropanecarbonitrile], the negative logarithm of the EC50 (pEC50) (Table 3) was 4.97.

As for `Cc1sc2nc(Cn3ncc4ccccc43)cc(=O)n2c1[C@@H]1C[C@H]1CO` (relative stereo) [Example 15.6, 7-((1H-indazol-1-yl)methyl)-3-(trans-2-(hydroxymethyl)cyclopropyl)-2-methyl-5H-thiazolo[3,2-a]pyrimidin-5-one], where the note is “Table 2”, the pEC50 is 5.04 and the Max % worked out at 138%.

In the case of `Cc1sc2nc(Cn3nc(C(F)(F)F)cc3C)cc(=O)n2c1-c1cncnc1` [Example 15.32, 2-methyl-7-((5-methyl-3-(trifluoromethyl)-1H-pyrazol-1-yl)methyl)-3-(pyrimidin-5-yl)-5H-thiazolo [3,2-a]pyrimidin-5-one], the Max % (Table 2) stood at 94.8%.

For the compound `CCN(Cc1cc(=O)n2c(-c3ccnc(N)c3)c(C)sc2n1)c1ccc(F)cc1` [Example 5.57, 3-(2-amino-4-pyridyl)-7-[(N-ethyl-4-fluoro-anilino)methyl]-2-methyl-thiazolo[3,2-a]pyrimidin-5-one], for the setting “Table 2”, the pEC50 was 5.19 and the Max % was 120%.

Consider `O=c1cc(Cn2nc(C(F)(F)F)cc2Cl)nc2sc(C(F)(F)F)c(N3CC(F)(F)C3)n12` [compound 231, 7-[[5-chloro-3-(trifluoromethyl)pyrazol-1-yl]methyl]-3-(3,3-difluoroazetidin-1-yl)-2-(trifluoromethyl)thiazolo[3,2-a]pyrimidin-5-one], for which the pEC50 (Table 3) is 4.21.

On to `CCNC(=O)c1csc2nc(COc3ccc(F)cc3)cc(=O)n12` [Example 1.7, N-ethyl-7-(4-fluorophenoxymethyl)-5-oxo-5H-[1,3]thiazolo[3,2-a]pyrimidine-3-carboxamide], for which, for the setting “Table 2”, the pEC50 is 4.57 and the Max % was determined as 44.8%.

Take `Cc1sc2nc(Cn3nc(Cl)cc3C(F)(F)F)cc(=O)n2c1C1CC1CO` (centres unmarked) [compound 103, 7-[[3-chloro-5-(trifluoromethyl)pyrazol-1-yl]methyl]-3-[2-(hydroxymethyl)cyclopropyl]-2-methyl-thiazolo[3,2-a]pyrimidin-5-one]: where the note is “Table 3”, the pEC50 is 6.60.

With `Cc1sc2nc(Cn3nc(Cl)cc3C(F)(F)F)cc(=O)n2c1Cl` [compound 193, 3-chloro-7-[[3-chloro-5-(trifluoromethyl)pyrazol-1-yl]methyl]-2-methyl-thiazolo[3,2-a]pyrimidin-5-one], the pEC50 (Table 3) is 6.61.

On to `Cc1sc2nc(Cn3nc(C#N)cc3C)cc(=O)n2c1[C@@H]1C[C@H]1CO` (relative stereo) [Example 15.21, 1-[[3-[trans-2-(hydroxymethyl)cyclopropyl]-2-methyl-5-oxo-thiazolo[3,2-a]pyrimidin-7-yl]methyl]-5-methyl-pyrazole-3-carbonitrile], for which, under “Table 2”, the pEC50 was 5.80 and the Max % stood at 161%.

Turning to `Cc1sc2nc(Cn3nc(C4CC4)cc3C(F)(F)F)cc(=O)n2c1C(=O)NCC(F)(F)F` [compound 58, 7-[[3-cyclopropyl-5-(trifluoromethyl)pyrazol-1-yl]methyl]-2-methyl-5-oxo-N-(2,2,2-trifluoroethyl)thiazolo[3,2-a]pyrimidine-3-carboxamide], the pEC50 (Table 3) was 5.19.

`Cc1sc2nc(COc3ccc(F)cc3)cc(=O)n2c1C(=O)NCCO` [Example 1.11, 7-(4-Fluorophenoxymethyl)-N-(2-hydroxyethyl)-2-methyl-5-oxo-5H-[1,3]thiazolo[3,2-a]pyrimidine-3-carboxamide]: where the note is “Table 2”, the Max % was found to be 73%.

Consider `CCc1sc2nc(Cn3nc(C(F)(F)F)cc3Cl)cc(=O)n2c1C(C)=O` [compound 211, 3-acetyl-7-[[5-chloro-3-(trifluoromethyl)pyrazol-1-yl]methyl]-2-ethyl-thiazolo[3,2-a]pyrimidin-5-one], for which the pEC50 (Table 3) is 6.51.

Consider `Cc1sc2nc(Cn3nc(C(F)(F)F)cc3Cl)cc(=O)n2c1/C=C/C#N` [compound 262, (E)-3-[7-[[5-chloro-3-(trifluoromethyl)pyrazol-1-yl]methyl]-2-methyl-5-oxo-thiazolo[3,2-a]pyrimidin-3-yl]prop-2-enenitrile], for which the pEC50 (Table 3) is 5.95.

As to `CNC(=O)c1c(C)sc2nc(Cc3ccc(C)c(F)c3)cc(=O)n12` [Example 21.58, 7-[(3-fluoro-4-methyl-phenyl)methyl]-N,2-dimethyl-5-oxo-thiazolo[3,2-a]pyrimidine-3-carboxamide], for the setting “Table 2”, the Max % turned out to be 46.1%.

As for `CNC(=O)c1c(C)sc2nc(Cc3cccc(C4CC4)c3)cc(=O)n12` [Example 21.52, 7-[(3-cyclopropylphenyl)methyl]-N,2-dimethyl-5-oxo-thiazolo[3,2-a]pyrimidine-3-carboxamide], under “Table 2”, the Max % worked out at 72.9%.

`Cc1sc2nc(Cc3cccc(C(F)(F)F)c3F)cc(=O)n2c1C#N` [Example 26.2, 7-(2-fluoro-3-(trifluoromethyl)benzyl)-2-methyl-5-oxo-5H-thiazolo[3,2-a]pyrimidine-3-carbonitrile]: the negative-log EC50 (pEC50) (Table 2) was 5.05.

As to `Cc1sc2nc(Oc3cccc(C(F)(F)F)c3)cc(=O)n2c1C1CC1CO` (centres unmarked) [compound 12, 3-[2-(Hydroxymethyl)cyclopropyl]-2-methyl-7-[3-(trifluoromethyl)phenoxy]thiazolo[3,2-a]pyrimidin-5-one], the pEC50 (Table 3) is 5.69.

With `CCNC(=O)c1c(C)sc2nc(Oc3cccc(C(F)(F)F)c3F)cc(=O)n12` [compound 48, N-ethyl-7-[2-fluoro-3-(trifluoromethyl)phenoxy]-2-methyl-5-oxo-thiazolo[3,2-a]pyrimidine-3-carboxamide], the pEC50 (Table 3) is 5.12.

`Cc1sc2nc(Cn3nc(C(F)(F)F)cc3Cl)cc(=O)n2c1C1CC1C#N` (single isomer, unassigned) [compound 125]: where the note is “Table 3”, the pEC50 is 7.56.

Consider `Cc1sc2nc(Cn3nc(Cl)cc3C(F)(F)F)cc(=O)n2c1-c1ncco1` [compound 159, 7-[[3-chloro-5-(trifluoromethyl)pyrazol-1-yl]methyl]-2-methyl-3-oxazol-2-yl-thiazolo[3,2-a]pyrimidin-5-one], for which, under “Table 3”, the pEC50 was 5.12.

As for `C=C(C)c1c(C(F)(F)F)sc2nc(Cn3nc(C(F)(F)F)cc3Cl)cc(=O)n12` [compound 169, 7-[[5-chloro-3-(trifluoromethyl)pyrazol-1-yl]methyl]-3-isopropenyl-2-(trifluoromethyl)thiazolo[3,2-a]pyrimidin-5-one], the pEC50 (Table 3) is 5.13.

As to `N#CC1CC1c1c(Cl)sc2nc(Cn3nc(C(F)(F)F)cc3Cl)cc(=O)n12` (centres unmarked) [compound 267], the pEC50 (Table 3) was 6.80.

(Values after patent US9988400B2 (Genentech, Inc., priority 2013, dated 2018).)
